According to patent publication US20240384268A1, “Oligonucleotides” (Hudson Institute of Medical Research, priority 2021, published 2024):
Entries after “also recorded” stand apart in the source; their conditions may differ. In the oligonucleotide strings, read from the 5' end, every base follows the letter of its sugar. An asterisk marks phosphorothioate; unmarked linkages are phosphodiester. Other units and linkages are bracketed, terminal groups are in braces. A string of capitals states the bases alone. d = 2'-deoxy (DNA); m = 2'-O-methyl

Columns and labels:
[1] = target: T1, Recombinant full-length human cGAS (Homo sapiens, UniProt Q8N884); assay: cGAS in vitro assay and cGAMP ELISA; assay type: biochemical; settings: 2.3 μM ISD70, 40 min; for cGAMP production driven by ISD70 (in words): 0.5 μM oligonucleotide
T1 construct: Recombinant full-length human cGAS (Cayman, #22810); purchased Cayman #22810
Protocol: 0.8 μg of Recombinant full-length human cGAS (Cayman, #22810) was used per single reaction in a 200 μl volume with 80 mM Tris-HCl (pH 7.5), 200 mM NaCl, 20 μM ZnCl2, 20 mM MgCl2, 0.25 mM GTP (Thermofisher #R0441) and 0.25 mM ATP (Thermofisher #R0461), with 20 μg of ISD70 (freshly annealed at 1 μg/l in PBS), and 2 μl C2-Mut1/A151 diluted in TE buffer (to get 0.5, 2 or 10 μM ODN concentration in 200 l). After 40 min at 37° C., 2.5 mM EDTA was added to each tube to stop the enzymatic reaction and the samples were either snap frozen and stored at −80° C. or directly processed for cGAMP ELISA. cGAMP levels were measured with the DetectX Direct 2′,3′-Cyclic GAMP Enzyme Immunoassay Kit (Arbor Assays), according to the manufacturer's protocol. Briefly, 50 μL of in vitro reaction were added per well of the kit microplate with 50 μL Assay buffer, 25 μL conjugate, and 25 μL Antibody per well, prior to a minimum of 2 h incubation. The standards were prepared with serial-dilution in Assay buffer. Quantification of cGAMP levels was performed on a Fluostar OPTIMA (BMG LABTECH) plate-reader at 450 nm.

[2] = target: T2, mouse Tlr9 (Mus musculus, UniProt Q9EQU3); assay: ODN 1826-driven TNF-α in immortalised mouse BMDMs; assay type: cell-based; settings: iBMDMs; 250-500 nM ASO; ODN 1826 500 nM overnight; listed as C2-Mutl
T2 construct: endogenous in cells; host or cells: immortalised wild-type mouse BMDMs
T2 sequence (Q9EQU3 26-1032): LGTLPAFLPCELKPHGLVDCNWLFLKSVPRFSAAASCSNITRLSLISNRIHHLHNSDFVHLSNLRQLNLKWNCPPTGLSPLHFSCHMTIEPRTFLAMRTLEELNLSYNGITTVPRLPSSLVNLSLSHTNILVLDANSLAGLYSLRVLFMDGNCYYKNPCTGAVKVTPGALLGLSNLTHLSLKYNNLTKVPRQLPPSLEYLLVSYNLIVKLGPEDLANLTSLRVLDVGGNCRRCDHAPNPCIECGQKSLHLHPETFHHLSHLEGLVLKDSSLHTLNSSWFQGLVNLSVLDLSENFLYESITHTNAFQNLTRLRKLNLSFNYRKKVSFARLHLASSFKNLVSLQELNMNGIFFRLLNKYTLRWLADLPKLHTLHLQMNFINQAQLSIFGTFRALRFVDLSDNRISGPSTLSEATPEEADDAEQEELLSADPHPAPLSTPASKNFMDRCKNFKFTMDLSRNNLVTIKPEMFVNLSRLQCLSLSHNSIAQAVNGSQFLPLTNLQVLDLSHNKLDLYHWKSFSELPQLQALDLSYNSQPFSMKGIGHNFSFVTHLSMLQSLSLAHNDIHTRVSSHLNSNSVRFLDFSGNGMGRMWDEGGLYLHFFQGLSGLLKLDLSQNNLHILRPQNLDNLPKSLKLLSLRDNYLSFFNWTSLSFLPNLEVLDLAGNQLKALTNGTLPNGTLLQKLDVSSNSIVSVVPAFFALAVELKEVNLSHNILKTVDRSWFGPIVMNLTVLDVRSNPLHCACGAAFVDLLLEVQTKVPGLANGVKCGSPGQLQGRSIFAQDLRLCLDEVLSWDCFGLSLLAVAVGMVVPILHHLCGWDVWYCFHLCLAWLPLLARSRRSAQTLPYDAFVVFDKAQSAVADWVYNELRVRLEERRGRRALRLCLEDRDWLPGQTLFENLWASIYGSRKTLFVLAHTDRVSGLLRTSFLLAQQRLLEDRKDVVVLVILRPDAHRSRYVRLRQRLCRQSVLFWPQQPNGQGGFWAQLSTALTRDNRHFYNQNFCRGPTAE

[3] = target: T3, STING (Homo sapiens, UniProt Q86WV6); assay: STING agonist (GSK, DMXAA)-driven IP-10 in MG-63 cells and immortalised mouse BMDMs; assay type: cell-based; settings: C2-Mut1 500 nM 6 h (GSK 100 nM, DMXAA 50 μg/ml); MOE/LNA ASOs 1 mM as printed (GSK, MG-63)
T3 construct: host or cells: MG-63 (human osteosarcoma)

[4] = test system: THP-1 and HT-29 cells; assay: Cell viability, resazurin; settings: THP-1 100 nM, HT-29 187.5 nM; 6 h, with or without ISD70 overnight
[5] = test system: primary fibroblast-like synoviocytes (FLS) and bone marrow-derived MSCs; assay: Senescence β-galactosidase staining of primary FLS and MSCs; settings: naked ASO 1 to 5 μM for one to two weeks; listed as C2-Mutl
[6] = target: cGAS (Homo sapiens, UniProt Q8N884); assay: IFN-driven gene expression in BJ hTERT SV40T fibroblasts (constitutive cGAS activation), RT-qPCR; settings: ASO transfected 20-100 nM overnight
Chain of cGAS (Q8N884 whole entry): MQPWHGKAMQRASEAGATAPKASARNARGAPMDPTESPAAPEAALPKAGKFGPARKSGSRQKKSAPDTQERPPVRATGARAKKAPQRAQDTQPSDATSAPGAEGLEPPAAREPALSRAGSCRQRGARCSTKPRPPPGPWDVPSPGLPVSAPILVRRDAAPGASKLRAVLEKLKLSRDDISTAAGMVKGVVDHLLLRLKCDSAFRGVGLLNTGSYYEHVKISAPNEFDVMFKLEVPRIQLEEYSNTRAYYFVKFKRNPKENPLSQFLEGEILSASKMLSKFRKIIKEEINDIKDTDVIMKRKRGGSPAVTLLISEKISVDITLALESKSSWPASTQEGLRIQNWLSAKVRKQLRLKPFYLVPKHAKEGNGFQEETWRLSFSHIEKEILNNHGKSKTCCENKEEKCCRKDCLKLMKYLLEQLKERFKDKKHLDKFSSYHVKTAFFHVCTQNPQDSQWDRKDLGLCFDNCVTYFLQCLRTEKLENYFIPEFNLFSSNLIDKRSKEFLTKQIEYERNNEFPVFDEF

T1 sequence (Q8N884 whole entry): as above
T3 sequence (Q86WV6 whole entry): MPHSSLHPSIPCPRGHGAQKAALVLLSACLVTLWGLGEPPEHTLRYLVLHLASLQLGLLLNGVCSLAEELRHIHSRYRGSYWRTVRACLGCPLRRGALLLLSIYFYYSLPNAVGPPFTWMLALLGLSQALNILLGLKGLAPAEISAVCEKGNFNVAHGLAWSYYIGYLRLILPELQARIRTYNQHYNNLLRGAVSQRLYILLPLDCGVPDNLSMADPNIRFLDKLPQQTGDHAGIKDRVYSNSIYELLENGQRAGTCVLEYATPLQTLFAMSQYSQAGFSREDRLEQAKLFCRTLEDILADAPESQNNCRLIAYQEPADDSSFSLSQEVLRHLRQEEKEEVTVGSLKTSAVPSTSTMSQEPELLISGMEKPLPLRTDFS

Substance	cGAMP production driven by ISD70 (in words) [1]	inhibitory activity on cGAMP production relative to A151 ([1]; 2 μM oligonucleotide)	inhibition of mouse TLR9 sensing of CpG ODN (TNF-α; in words) [2]	IP-10 production driven by STING synthetic agonists (in words) [3]	cell viability [4]	senescence-associated β-galactosidase (SAB) positive cells (in words) [5]	inhibition of constitutively expressed ISGs (IFIT1, IFIT2, IFI44; in words) [6]
T*T*A* G*G*G* T*T*A* G*G*G* T*T*A* G*G*G* T*T*A* G*G*G [A151, reference compound]	similarly reduced cGAMP production						
mG*mC*mG*mG*mU*A*T*C*C*A*T*G*T*C*C*mC*mA*mG*mG*mC (mG*mC*mG*mG*mU*dA*dT*dC*dC*dA*dT*dG*dT*dC*dC*mC*mA*mG*mG*mC; antisense) [C2-Mut1]	similarly reduced cGAMP production	about 2 fold	significantly decreased sensing of the CpG ODN 1826; also recorded: very potent inhibitor of mouse TLR9	did not significantly affect IP-10 production	did not significantly impact cell viability	senescence was strongly reduced; also recorded: more potent inhibitor of SAB than A151	significantly more potent than its two nucleotide variant C2-Mut1v3
